Laboratory results from US20220146526A1, “METHOD FOR EVALUATING SAMPLE, ANALYSIS METHOD, METHOD FOR DETECTING DEGRADED SAMPLE, MARKER FOR DETECTING DEGRADED BLOOD PLASMA SAMPLE, AND MARKER FOR DETECTING DEGRADED SERUM SAMPLE” (SHIMADZU CORPORATION, priority 2019, published 2022).
Values joined by “and” are separate entries in the source; they are usually repeats but may differ in a detail not shown here. Equal values may be shown once.

Key:
Assay type in all cases: physicochemical, human
[1] = GC/MS of serum sample: time from blood collection to centrifugation (Table G); settings: for Rate of increase or decrease: detection intensity relative to 1 at 15 minutes; for Rate of increase or decrease / Increase or decrease: blood collection to centrifugation; for Increase or decrease: detection intensity
Procedure: (§1) After standing, the blood sample was subjected to centrifugation under a condition of room temperature, 3500 rpm, and 5 minutes. […] After centrifugation, the blood-collecting vessel was left to stand at room temperature, and the serum was isolated during this time. Here, in order to investigate how the detection intensity of molecules contained in the sample was affected in cases where the time during which the blood-collecting vessel was left at room temperature was set to 1 hour and 6 hours as compared to that in a case where the time was set to 30 minutes, preparations were performed under the respective conditions of 30 minutes, 1 hour, and 6 hours. The obtained serum sample was frozen and stored. Here, in order to investigate how the detection intensity of molecules contained in the sample was affected in cases where freezing and thawing was performed 4 times, 6 times, and 10 times after freezing as compared to that in a case where freezing and thawing was performed 2 times after freezing, freezing and thawing was performed under the respective conditions of 2, 4, 6, and 10 times.
(§2) Frozen blood plasma samples and serum samples were subjected to GC/MS or LC/MS. In GC/MS, the blood plasma samples and serum samples were subjected to methoxymation and trimethylsilylation and then introduced to GC-MS.
(§3) GC/MS was conducted using GCMS·TQ8040 (Shimadzu Corporation) that was a GC·MS equipped with AOC·20i (Shimadzu Corporation) as an autosampler.
(§4) Column: BPX5 (inner diameter of 0.25 mm, length of 30 m, and film thickness of 0.25 μm) (SGE)
(§5) Column temperature: maintained at 60° C. for 2 minutes, then raised at 15° C./min, and maintained at 330° C. for 3 minutes.
(§6) Inlet temperature: 250° C.
(§7) Carrier gas control mode: constant linear velocity of 39.0 cm/sec
(§8) Sample introduction method: split (split ratio of 30:1) Injection volume: 1 μL
(§9) Ionization method: electron ionization
(§10) Ionization current: 60 μA
(§11) Interface temperature: 280° C.
(§12) Ion source temperature: 200° C.
(§13) Mode: multiple reaction monitoring (MRM)
The rate of increase or decrease in Table G is the value of detection intensity relative to 1 that is the detection intensity in a case where the time from blood collection to centrifugation is set to 15 minutes.

[2] = GC/MS of serum sample: time from centrifugation to isolation (Table H); set-up: key to Rate of increase or decrease / Rate of increase or decrease (first value, increase): detection intensity relative to 1 at 30 min centrifugation-to-isolation; settings: for Rate of increase or decrease: detection intensity relative to 1 at 30 minutes; for Increase or decrease: detection intensity
Procedure: as §1, §2, §3, §4, §5, §6, §7, §8, §9, §10, §11, §12, §13
The rate of increase or decrease in Table H is the value of detection intensity relative to 1 that is the detection intensity in a case where the time from centrifugation to isolation is set to 30 minutes.

[3] = GC/MS of serum sample: number of times of freezing and thawing (Table I); set-up: key to Rate of increase or decrease / Rate of increase or decrease (first value, increase): detection intensity relative to 2 freeze-thaw cycles = 1; settings: for Rate of increase or decrease: detection intensity relative to 1 at 2 times; for Number of times when compound is affected: detection intensity changed by 30% or more vs 2 times of freezing and thawing
Procedure: as §1, §2, §3, §4, §5, §6, §7, §8, §9, §10, §11, §12, §13
The rate of increase or decrease in Table I is the value of detection intensity relative to 1 that is the detection intensity in a case where the number of times of freezing and thawing is set to 2 times.

[4] = serum, GC/MS, freezing and thawing 4 times
[5] = detection intensity, serum, GC/MS, freezing and thawing 4 times vs 2 times
[6] = serum, GC/MS, freezing and thawing 10 times
[7] = detection intensity, serum, GC/MS, freezing and thawing 10 times vs 2 times
[8] = 10 times of freezing and thawing
[9] = serum sample, GC/MS, detection intensity vs 2 times of freezing and thawing
[10] = serum, GC/MS, freezing and thawing 6 times
[11] = detection intensity, serum, GC/MS, freezing and thawing 6 times vs 2 times

Row | Rate of increase or decrease ([1]; after 4 hours) | Increase or decrease ([1]; after 4 hours vs 15 minutes) | Rate of increase or decrease ([2]; after 1 hour) | Increase or decrease ([2]; after 1 hour vs 30 minutes) | Rate of increase or decrease [3, 4] | Increase or decrease [3, 5] | Rate of increase or decrease ([2]; after 6 hours) | Increase or decrease ([2]; after 6 hours vs 30 minutes) | Rate of increase or decrease ([1]; after 8 hours) | Increase or decrease ([1]; after 8 hours vs 15 minutes) | SMILES | other results
1 | 1.60 | Increase | 1.67 | Increase | 2.80 | Increase |  |  |  |  | CCCCCCC(N)C(=O)O (centres unmarked) [2-Aminooctanoic acid] | 
2 | 0.58 | Decrease |  |  |  |  | 1.88 | Increase |  |  | O=C(O)C(=O)CO [3-Hydroxypyruvic acid] | Rate of increase or decrease [3, 6]: 4.59; Increase or decrease [3, 7]: Increase
3 | 1.93 | Increase |  |  |  |  | 1.54 | Increase |  |  | O=C(O)CCc1c[nH]c2ccccc12 [3-Indolepropionic acid] | Increase or decrease [3, 7]: Different from individual; Rate of increase or decrease (second value, decrease) ([3]; different from individual to individual, individuals with decrease, relative to 1 at 2 times, serum, GC/MS, freezing and thawing 10 times): 0.67; Rate of increase or decrease (first value, increase) ([3]; different from individual to individual, individuals with increase, relative to 1 at 2 times, serum, GC/MS, freezing and thawing 10 times): 2.21
4 |  |  |  |  | 1.39 | Increase | 1.39 | Increase | 1.46 | Increase | CC(=O)CC(=O)O [Acetoacetic acid] | 
5 |  | Different from individual | 2.50 | Increase |  |  |  |  |  |  | O=C(O)CCCCC(=O)O [Adipic acid] | Rate of increase or decrease (second value, decrease) ([1]; different from individual to individual, individuals with decrease, relative to 1 at 15 minutes, collection to centrifugation, after 4 hours): 0.61; Rate of increase or decrease (first value, increase) ([1]; different from individual to individual, individuals with increase, relative to 1 at 15 minutes, collection to centrifugation, after 4 hours): 2.06; Rate of increase or decrease [3, 6]: 2.14; Increase or decrease [3, 7]: Increase
6 | 1.38 | Increase | 0.50 | Decrease |  |  |  |  |  |  | NCCCCCN [Cadaverine] | Rate of increase or decrease [3, 10]: 2.31; Increase or decrease [3, 11]: Increase
7 | 2.01 | Increase | 0.33 | Decrease |  |  |  |  |  |  | CC(O)(CC(=O)O)C(=O)O (centres unmarked) [Citramalic acid] | Rate of increase or decrease [3, 8]: 0.53; Number of times when compound is affected ([3]; serum sample, GC/MS): 10 times; Increase or decrease [3, 9]: Decrease
8 | 0.58 and 0.55 | Decrease | 1.31 | Increase | 0.45 and 0.46 | Decrease |  |  |  |  | O=C(CO)[C@H](O)CO [Erythrulose] | 
9 |  |  | 1.75 | Increase | 2.61 | Increase |  |  |  |  | O=C(O)CCCc1ccccc1 [Phenylbutyric acid] | Rate of increase or decrease ([1]; after 12 hours): 2.17; Increase or decrease ([1]; after 12 hours vs 15 minutes): Increase
10 |  |  | 1.54 | Increase |  |  |  |  | 1.44 | Increase | NCCCCN [Putrescine] | Rate of increase or decrease [3, 8]: 1.77; Number of times when compound is affected ([3]; serum sample, GC/MS): 10 times; Increase or decrease [3, 9]: Increase
11 |  |  |  | Different from individual | 1.33 | Increase |  |  | 0.68 | Decrease | O=C1O[C@H](CO)[C@@H](O)[C@H]1O [Ribonic acid lactone] | Rate of increase or decrease (second value, decrease) ([2]; different from individual to individual, individuals with decrease, relative to 1 at 30 minutes, after 1 hour): 0.57; Rate of increase or decrease (first value, increase) ([2]; different from individual to individual, individuals with increase, relative to 1 at 30 minutes, after 1 hour): 1.71
12 |  |  |  |  | 0.56 | Decrease | 1.45 | Increase | 0.55 | Decrease | O=C(O)[C@@H](O)[C@H](O)CO [Threonic acid] | 
13 | 2.37 | Increase |  |  |  |  | 3.34 | Increase |  |  | NCCc1ccc(O)cc1 [Tyramine] | Rate of increase or decrease [3, 8]: 3.78; Number of times when compound is affected ([3]; serum sample, GC/MS): 10 times; Increase or decrease [3, 9]: Increase
14 | 1.38 | Increase |  |  |  |  | 4.84 | Increase |  |  | O=c1cc[nH]c(=O)[nH]1 [Uracil] | Rate of increase or decrease [3, 10]: 1.54; Increase or decrease [3, 11]: Increase
15 |  |  |  |  |  |  | 2.48 | Increase | 1.95 | Increase | O=C(CO)[C@@H](O)[C@H](O)CO [Xylulose] | 

Row | SMILES | Rate of increase or decrease ([1]; after 4 hours) | Increase or decrease ([1]; after 4 hours vs 15 minutes) | Rate of increase or decrease ([2]; after 1 hour) | Increase or decrease ([2]; after 1 hour vs 30 minutes) | Rate of increase or decrease [3, 4] | Increase or decrease [3, 5] | Rate of increase or decrease ([2]; after 6 hours) | Increase or decrease ([2]; after 6 hours vs 30 minutes) | Rate of increase or decrease ([1]; after 8 hours) | Increase or decrease ([1]; after 8 hours vs 15 minutes) | other results
16 | O=C(O)c1ccccc1 [Benzoic acid] | 1.30 | Decrease | 0.69 | Decrease |  |  |  |  |  |  | Rate of increase or decrease [3, 8]: 3.86; Number of times when compound is affected ([3]; serum sample, GC/MS): 10 times; Increase or decrease [3, 9]: Increase
